One substance from patent US11542316B2, “S-Arrestin peptides and therapeutic uses thereof” (APITOPE INTERNATIONAL NV, priority 2017, dated 2023) can be followed below.

Ends that are not written are not given here.

In assay [1] the test system is LN cells and splenocytes upon SAg or peptide restimulation. Nature of the assay: Ex vivo tolerization experiment, DR2tg mice. As to conditions: DR2 mice, IFN-γ. It is filed as in vivo. As for the experimental part: FIG. 7: Ex vivo tolerisation protocol. Mice are injected subcutaneously in the flank with 0.1 μg/ml, 1 μg/ml and 10 μg/ml peptide on days −15, −13 and −11, followed by 3 injections of 100 μg/ml on days −8, −6 and −4 (escalating dose regime). On day 0, mice are immunized subcutaneously at the base of the tail with SAg/CFA or peptide/CFA. Mice are sacrificed 10 days after immunization to measure proliferation of LN cells and splenocytes upon SAg or peptide restimulation. LN, lymph nodes.
FIG. 11: Ex vivo tolerance induction by HIP-9K1-KKK apitope. DR2 mice are injected subcutaneously in the flank with 0.1 μg/ml, 1 μg/ml and 10 μg/ml HIP-9K1-KKK on days −15, −13 and −11, followed by 3 injections of 100 μg/ml on days −8, −6 and −4 (escalating dose regime). On day 0, mice are immunized subcutaneously at the base of the tail with HIP-9FL/CFA. Mice are sacrificed 10 days after immunization to measure proliferation of LN cells and splenocytes upon SAg or peptide restimulation. Data represent mean±SEM of the concentration values for the PBS-treated mice (black lines) and peptide-treated mice (color lines). IFN-γ production expressed as IFN-γ concentration (pg/ml). Two-way ANOVA was used to measure overall treatment effects on T cell activation and p-values are written in the graphs. Bonferonni post-hoc testing was used and significant differences are indicated in the graphs (* p<0.05; **** p<0.0001). LN, lymph nodes. (A) Tolerisation against SAg in LN. (B) Tolerisation against HIP-9FL and HIP-9K1-KKK in LN. (C) Tolerisation against SAg in spleen. (D) Tolerisation against HIP-9FL and HIP-9K1-KKK in spleen.
FIG. 13: Ex vivo tolerance induction by HIP-12G1-KKK apitope. DR2 mice are injected subcutaneously in the flank with 0.1 μg/ml, 1 μg/ml and 10 μg/ml HIP-12G1-KKK on days −15, −13 and −11, followed by 3 injections of 100 μg/ml on days −8, −6 and −4 (escalating dose regime). On day 0, mice are immunized subcutaneously at the base of the tail with HIP-12AK/CFA. Mice are sacrificed 10 days after immunization to measure proliferation of LN cells and splenocytes upon SAg or peptide restimulation. Data represent mean±SEM of the concentration values for the PBS-treated mice (black lines) and peptide-treated mice (color lines). IFN-γ production expressed as IFN-γ concentration (pg/ml). Two-way ANOVA was used to measure overall treatment effects on T cell activation and p-values are written in the graphs. Bonferonni post-hoc testing was used and significant differences are indicated in the graphs (** p<0.01; *** p<0.001: **** p<0.0001). LN, lymph nodes. (A) Tolerisation against HIP-12G1-KKK and HIP-12G1 in LN. (B) Tolerisation against HIP-12G1-KKK in spleen.
DR3tg or DR2tg mice were injected subcutaneously in the flank region with 0.1 μg, 1 μg and 10 μg of peptide on days −15, −13 and −11 respectively, followed by 3 injections of 100 μg peptide on days −8, −6 and −4 (dose escalation schedule). On day 0, the mice were immunised subcutaneously in the base of the tail with 50 μg antigen (parental peptide) emulsified in CFA (peptide/CFA). Ten days after immunisation, draining lymph nodes (LN) and spleens were harvested. LN cells and splenocytes were isolated and cultured in X-vivo 15 medium (supplemented with 2 mM L-glutamine, 50 U/mL penicillin and 50 U/mL streptomycin; Lonza) in 96-well flat bottom plates. To investigate antigen-induced cell proliferation, 0.5×10^6 cells/well were cultured (200 μl/well) for 72 hours with different antigen concentrations (0-25 μg/ml) or with 12.5 μg/ml purified protein derivative (PPD; priming control; Statens serum institut, Copenhagen, Denmark). After 72 hours, supernatant was harvested and stored at −80° C. until further analysis. IFN-γ concentrations in supernatants were assessed by cytokine ELISA (R&D Systems, Abingdon, UK) to measure cell activation.

For assay [2], the system named is T cell line with MGAR APC. Nature of the assay: Antigen Processing Independent Presentation System (APIPS) assay, fresh or fixed MGAR APC. It is filed as cell-based, DR2 mice. The conditions noted are these: DR2 T cell line, IFN-γ, 24 h. The method, then: FIG. 4: Identification of apitopes within HIP-9FL. DR2 mice were immunized with HIP-9FL-KKK and a T cell line was established. Ten days after immunization the LN and spleens were harvested and cultured with different concentrations of peptide (0.1-1-2.5 and 5 μg/ml); 2×10^6 cells/ml APCs+1×10^6 cells/ml CD4 T cells per well. At day 7 the cells were re-stimulated with the same concentrations of peptide. On day 21 an APIPS test was done using commercial APC (MGAR). After 24 h, antigen-induced T cell activation was measured by IFN-γ ELISA and shown as OD values. The graph represents the mean of duplicate measurements±SEM. LN, lymph nodes; APC, Antigen presenting cell; APIPS, Antigen Processing Independent Presentation System.
Antigen-specific clones or TCL were tested for their reactivity to the peptides, presented by fixed or not fixed (fresh) cells (VAVY or MGAR) (=APCs). 5×10^4 cells from the individual clones were cultured with 10 μg/ml peptide and 5×10^4 fixed or fresh APCs. In the case of TCL, 5×10^4 cells were cultured with 10 μg/ml and 25 μg/ml peptide and 2.5×10^4 fixed or fresh APCs. To fixate APCs, cells were incubated with 0.5% paraformaldehyde (Merck, Darmstadt, Germany) (pH7) for 5 min at room temperature (RT). The fixation reaction was stopped by adding 0.4M glycine (Sigma-Aldrich) and washing the cells in RPMI-10% FCS. Additionally, reactivity towards human SAg protein (QBiologicals, Eurofins Amatsigroup, Ghent, Belgium) was measured to identify cryptic epitopes. After 24 h or 48 h, antigen-induced IFN-γ or IL-2 production (respectively) was measured by ELISA (R&D Systems, Abingdon, UK).
DR3tg or DR2tg mice were immunised subcutaneously in the base of the tail with 50 μg peptide emulsified in CFA (peptide/CFA). Ten days after immunisation, draining lymph nodes (LN) and spleens were harvested. […] At day 7, TCL cells were counted and cultured with fresh APC, peptides and IL-2, all at the same concentrations as above. […]

For the substance “KKKAFVEQVANVVLKKK-NH2 [HIP-9K1-KKK, KKKAFVEQVANVVLKKK]”, in assay [1] (LN), the “tolerization against the peptide itself / parental peptide” value is reported as “tolerization induced”. In addition, the “tolerization against SAg” value in assay [1] (LN, escalating dose regime s.c.) is “tolerization induced”. For the same substance, in assay [1] (spleen), the “tolerization against SAg” value is “Tolerance is also induced” and the “tolerization against the peptide itself” value is “Tolerance is also induced”. Further, in assay [2], the “behaves as apitope (response to peptide presented by fresh or fixed APC)” value was “behave as apitopes”.
